The IC50 is the concentration at which inhibition is half-maximal. The GI50 is the concentration giving 50% growth inhibition. A lower GI50 goes with greater sensitivity of the cells. For orientation: EC50 means the concentration giving half of the maximal effect.

We go through five molecules from US20130029942A1, “COMPOUNDS AND THERAPEUTICAL USES THEREOF” (Myrexis, Inc., priority 2003, published 2013).

Where two headings read alike, the source gives them in different places.

One assay concerns P388/ADR cells. Nature of the assay: Cytotoxicity (ATP-lite cell viability), MDR-1 over-expressing P388/ADR. The format is cell-based. The note with it: Mus musculus, 72 hours. Here is the method:
(§1) Cytotoxicity of compounds in multidrug resistant cells can be determined by administering compounds to cell lines that overexpress the multidrug resistance pump MDR-1 and determining the viability of the cell lines.
(§2) NCI-ADR/Res, MCF-7, P388, and P388/ADR cell lines were obtained from American Type Culture Collection (Manassas, Va.) and maintained in RPMI-1640 media supplemented with 10% FCS, 10 units/ml penicillin and streptomycin, 2 mM Glutamax and 1 mM sodium pyruvate (Invitrogen Corporation, Carlsbad, Calif.). For compound testing, cells were plated in 96 well dishes at a concentration of 1.5×10^4 cells/well. Cells were allowed to adhere to the plate overnight and then incubated with compounds at final concentrations ranging from 0.13 nM to 10 uM for 72 hours. Cell viability was then assessed using the ATP-lite reagent (Perkin Elmer, Foster City, Calif.). Plates were read on a Wallac Topcount luminescence reader (Perkin Elmer, Foster City, Calif.) and the results graphed in Prism software (Graphpad Software, Inc., San Diego, Calif.). Non-linear regression with variable slope analysis was performed to obtain IC50 concentration values.
(§3) Example 1 compound, docetaxel, and vinblastine were tested for their ability to kill multidrug resistant cells by administering the compounds to NCI-ADR/Res, MCF-7 cells, P388 and P388/ADR cells and determining the viability of the cells.

Another assay concerns P388 cells. Nature of the assay: Cytotoxicity (ATP-lite cell viability), P388. The note with it: Mus musculus; P388, 72 hours. The format is cell-based, murine. How it is done:
as §1, §2, §3

Assay [1] deals with T-47D cells. The assay can be described thus: Inhibition of cell proliferation (GI50), CellTiter-Glo, T-47D. The format is cell-based. The note with it: Homo sapiens, T47D, 48 h. Here is the method: (§4) T-47D, DLD, H1299, MX-1 and SW620 cells were grown and harvested as in Example 262. […] An aliquot of 45 μL of cells was added to a well of a 96-well microtiter plate containing 5 μL of a 10% DMSO in RPMI-1640 media solution without compound as the control sample for maximal cell proliferation (Lmax). The samples were mixed by agitation and then incubated at 37° C. for 48 h in a 5% CO2—95% humidity incubator. After incubation, the samples were removed from the incubator and 25 μL of CellTiter-Glo™ reagent (Promega) was added. The samples were mixed by agitation and incubated at room temeperature for 10-15 min. Plates were then read using a luminescent plate reader (Model SPECTRAfluor Plus, Tecan) to give Ltest values.
(§5) The samples were mixed by agitation and then incubated at 37° C. for 0.5 h in a 5% CO2—95% humidity incubator. After incubation, the samples were removed from the incubator and 25 μL of CellTiter-Glo™ reagent (Promega) was added. The samples were mixed by agitation and incubated at 37° C. for 10-15 min at room temperature in a 5% CO2—95% humidity incubator. Fluorescence was read as above, (LStart) defining luminescence for initial cell number used as baseline in GI50 determinations.
For orientation: Cellular ATP, detected with luciferase, serves as a proxy for viable cell number.

A further assay addresses T1, topoisomerase I (Homo sapiens, UniProt P11387).
T1 sequence (P11387 1-765): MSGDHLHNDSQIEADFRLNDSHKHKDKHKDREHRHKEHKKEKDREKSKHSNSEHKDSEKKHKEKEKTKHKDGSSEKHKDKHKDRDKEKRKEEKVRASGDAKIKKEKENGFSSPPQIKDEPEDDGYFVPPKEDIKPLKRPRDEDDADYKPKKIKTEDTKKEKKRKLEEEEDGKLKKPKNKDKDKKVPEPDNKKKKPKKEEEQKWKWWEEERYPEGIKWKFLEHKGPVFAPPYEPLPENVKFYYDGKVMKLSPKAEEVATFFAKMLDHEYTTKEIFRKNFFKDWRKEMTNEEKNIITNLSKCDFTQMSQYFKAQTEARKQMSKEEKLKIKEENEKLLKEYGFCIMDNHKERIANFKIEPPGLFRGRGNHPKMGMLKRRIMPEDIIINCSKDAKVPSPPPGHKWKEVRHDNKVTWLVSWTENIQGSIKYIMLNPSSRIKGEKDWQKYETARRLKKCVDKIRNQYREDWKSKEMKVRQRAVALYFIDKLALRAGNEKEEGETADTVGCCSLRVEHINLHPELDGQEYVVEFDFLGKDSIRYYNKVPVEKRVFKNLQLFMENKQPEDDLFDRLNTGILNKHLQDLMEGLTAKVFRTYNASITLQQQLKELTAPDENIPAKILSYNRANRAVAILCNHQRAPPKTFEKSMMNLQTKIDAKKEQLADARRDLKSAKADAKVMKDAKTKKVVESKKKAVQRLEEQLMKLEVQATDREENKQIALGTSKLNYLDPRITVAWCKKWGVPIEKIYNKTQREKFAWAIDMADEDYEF
The assay can be described thus: Topoisomerase I activity assay (relaxation of supercoiled DNA, gel). The following applies: Form I DNA, varying concentrations, FIG. 2.

A further assay relates to SW620 cells. The assay can be described thus: Inhibition of cell proliferation (GI50), CellTiter-Glo, SW620. The following applies: Homo sapiens, SW-620, 48 h. The format is cell-based. Here is the method:
as §4, §5

In a further assay the test system is DLD cells. The assay can be described thus: Inhibition of cell proliferation (GI50), CellTiter-Glo, DLD. It is filed as cell-based. The following applies: Homo sapiens, 48 h. How it is done:
as §4, §5

Another assay has as its system MCF-7 cells. The assay can be described thus: Cytotoxicity (ATP-lite cell viability), MCF-7. It is filed as cell-based. The following applies: Homo sapiens, MCF7; MCF-7, 72 hours. How it is done:
as §1, §2, §3

A further assay deals with NCI-ADR/Res cells. Nature of the assay: Cytotoxicity (ATP-lite cell viability), MDR-1 over-expressing NCI-ADR/Res. It is filed as cell-based. The note with it: Homo sapiens, 72 hours. Here is the method:
as §1, §2, §3

The next assay deals with tubulin (Bos taurus, UniProt P81947+Q6B856). Nature of the assay: Inhibition of tubulin polymerization (DAPI fluorescence). It is filed as biochemical. The following applies: MAP-rich tubulin, 30 minutes at 37° C. Here is the method:
Lyophilized tubulin (Cytoskeleton #ML113, 1 mg, MAP-rich) was assayed for the effect of the test compound on tubulin polymerization as measured by change in fluorescence for 4′,6-diamidino-2-phenylindole (DAPI) (Barron, D. M. et al. Analytical Biochem., 2003, 315, 49-56). 1 μl of serial dilutions of each test compound (from 100×DMSO stock) was added in 96 well plate format and preincubated for 30 minutes with 94 ul of the non-GTP supplemented tubulin supernatant. 5 μl of DAPI/GTP solution was added to initiate polymerization and incubated for 30 minutes at 37° C. Fluorescence was read with excitation 350 nm, emission wavelength 485 nm on a Tecan Spectraflour Plus. Polymerized tubulin (DMSO and with the tubulin stabilizer Taxol® (paclitaxel)) gives a higher DAPI fluorescence as compared to non-polymerized tubulin (vinblastine and colchicine used to determine baseline).

In a further assay the target is Topoisomerase II (Homo sapiens, UniProt P11388). Nature of the assay: Topoisomerase II activity assay (relaxation of supercoiled DNA, gel). The note with it: 100 μM, pRYG DNA, FIG. 1.
Another assay concerns MX-1 cells. The assay can be described thus: Inhibition of cell proliferation (GI50), CellTiter-Glo, MX-1. It is filed as cell-based. The following applies: Homo sapiens, MX1, 48 h. How it is done: as §4, §5
A further assay has as its system H1299 cells. The assay can be described thus: Inhibition of cell proliferation (GI50), CellTiter-Glo, H1299. The format is cell-based. The note with it: Homo sapiens, NCI-H1299, 48 h. How it is done: as §4, §5
Assay [2] concerns T-47D cells. Nature of the assay: Caspase cascade activation / induction of apoptosis in T-47D cells (fluorogenic N-(Ac-DEVD)-N'-ethoxycarbonyl-R110 substrate). The format is cell-based, human. The note with it: Homo sapiens, T47D.
The target of assay [3] is tyrosine kinase of Epidermal Growth Factor Receptor (Homo sapiens, UniProt P00533). The following applies: Bridges et al. 1996; read-out: IC50 EGFR tyrosine kinase; cited from earlier work.
Assay [4] addresses T2, Human Type II Topoisomerase (p170 Form) (Homo sapiens, UniProt P11388).
T2 construct: purchased TopoGEN, Inc., Columbus, Ohio
Nature of the assay: Photo-crosslinking of radiolabeled compound to Topoisomerase II (SDS gel, autoradiography). It is filed as binding. The following applies: 50 nM, 60 minutes at room temperature, UV 254 nm, FIG. 3. How it is done:
30 Units (15 ul) Human Type II Topoisomerase (p170 Form) (from TopoGEN, Inc., Columbus, Ohio) was incubated with 50 nM radiolabeled Example 102 compound for 60 minutes at room temperature.
Radiolabeled Example 102 compound stock is 16.67 uM, 60 Ci/mmol, 1 mCi/ml American Radiolabeled Chemicals, Inc., St. Louis, Mo. Samples were either UV irradiated (+) with a short wavelength UV Source (254 nm) for 10 minutes at a distance of 3.5 cm or not irradiated (−). 8 ul of 5× sample buffer (150 mM Tris, pH 6.8, 50% glycerol, 1% SDS, 50 mM dithiothreitol, 62 mg/ml bromophenol blue) was added to the samples and boiled for 5 minutes. The entire sample was then loaded onto a 6% Tris-Glycine SDS-gel (10 well, 1.5 mm thickness) (Invitrogen, Carlsbad, Calif.). The gel was stained with 1% Coomassie Brilliant Blue in 40% methanol, 7.5% acetic acid for 2 hours then de-stained in several changes of de-stainer (40% methanol, 7.5% acetic acid). The gel was then incubated in Amplify (Amersham, Piscataway, N.J.) for 30 minutes at room temperature and then dried down on Whatman filter paper at 80° C. for 2 hours on a gel dryer. The dried gel was put on Hyperfilm (Amersham) in a film cassette and placed at −80° C. for 5-7 days.

tyrosine kinase of Epidermal Growth Factor Receptor, sequence (P00533 25-1210): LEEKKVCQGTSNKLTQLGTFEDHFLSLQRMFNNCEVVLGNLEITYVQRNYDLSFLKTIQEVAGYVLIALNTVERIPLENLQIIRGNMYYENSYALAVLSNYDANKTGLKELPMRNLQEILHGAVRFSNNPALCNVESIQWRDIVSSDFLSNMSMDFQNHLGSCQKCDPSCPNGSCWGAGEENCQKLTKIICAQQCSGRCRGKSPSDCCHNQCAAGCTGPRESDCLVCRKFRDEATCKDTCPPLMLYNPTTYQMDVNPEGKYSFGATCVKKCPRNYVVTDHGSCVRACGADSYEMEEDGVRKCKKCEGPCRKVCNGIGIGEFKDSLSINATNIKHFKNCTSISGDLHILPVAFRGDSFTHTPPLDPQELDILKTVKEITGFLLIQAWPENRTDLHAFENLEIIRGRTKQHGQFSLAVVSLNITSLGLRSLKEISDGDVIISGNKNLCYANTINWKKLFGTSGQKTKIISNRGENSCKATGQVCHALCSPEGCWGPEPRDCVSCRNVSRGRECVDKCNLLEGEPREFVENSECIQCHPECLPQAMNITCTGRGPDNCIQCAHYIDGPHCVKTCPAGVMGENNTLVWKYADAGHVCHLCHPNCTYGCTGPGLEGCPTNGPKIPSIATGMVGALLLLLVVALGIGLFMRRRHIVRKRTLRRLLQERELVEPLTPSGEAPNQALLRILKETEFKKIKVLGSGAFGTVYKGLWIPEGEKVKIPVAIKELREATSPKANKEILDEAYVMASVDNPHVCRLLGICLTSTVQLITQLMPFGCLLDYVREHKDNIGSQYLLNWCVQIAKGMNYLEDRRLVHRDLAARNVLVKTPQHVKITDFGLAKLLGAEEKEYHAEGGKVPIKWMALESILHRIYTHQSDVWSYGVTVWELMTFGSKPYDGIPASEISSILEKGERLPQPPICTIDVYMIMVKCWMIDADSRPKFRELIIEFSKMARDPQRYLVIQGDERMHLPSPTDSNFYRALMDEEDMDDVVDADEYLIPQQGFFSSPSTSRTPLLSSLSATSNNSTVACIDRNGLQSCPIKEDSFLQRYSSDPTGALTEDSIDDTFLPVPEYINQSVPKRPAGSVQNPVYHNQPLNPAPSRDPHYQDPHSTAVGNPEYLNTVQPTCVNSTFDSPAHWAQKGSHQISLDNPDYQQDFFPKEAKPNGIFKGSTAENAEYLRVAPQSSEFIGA
tubulin, sequence (P81947 whole entry): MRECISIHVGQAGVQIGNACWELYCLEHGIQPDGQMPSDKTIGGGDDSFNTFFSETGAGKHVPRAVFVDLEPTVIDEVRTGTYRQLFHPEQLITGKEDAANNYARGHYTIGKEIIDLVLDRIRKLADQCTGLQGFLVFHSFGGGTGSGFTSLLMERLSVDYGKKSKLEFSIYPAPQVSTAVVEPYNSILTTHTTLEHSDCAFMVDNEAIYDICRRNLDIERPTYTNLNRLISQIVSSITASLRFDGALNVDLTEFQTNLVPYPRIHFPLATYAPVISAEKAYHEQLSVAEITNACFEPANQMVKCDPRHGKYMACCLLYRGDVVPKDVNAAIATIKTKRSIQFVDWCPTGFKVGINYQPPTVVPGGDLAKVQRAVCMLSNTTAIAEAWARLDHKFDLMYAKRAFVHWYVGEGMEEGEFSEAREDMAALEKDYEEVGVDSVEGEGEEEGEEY
tubulin, sequence (Q6B856 whole entry): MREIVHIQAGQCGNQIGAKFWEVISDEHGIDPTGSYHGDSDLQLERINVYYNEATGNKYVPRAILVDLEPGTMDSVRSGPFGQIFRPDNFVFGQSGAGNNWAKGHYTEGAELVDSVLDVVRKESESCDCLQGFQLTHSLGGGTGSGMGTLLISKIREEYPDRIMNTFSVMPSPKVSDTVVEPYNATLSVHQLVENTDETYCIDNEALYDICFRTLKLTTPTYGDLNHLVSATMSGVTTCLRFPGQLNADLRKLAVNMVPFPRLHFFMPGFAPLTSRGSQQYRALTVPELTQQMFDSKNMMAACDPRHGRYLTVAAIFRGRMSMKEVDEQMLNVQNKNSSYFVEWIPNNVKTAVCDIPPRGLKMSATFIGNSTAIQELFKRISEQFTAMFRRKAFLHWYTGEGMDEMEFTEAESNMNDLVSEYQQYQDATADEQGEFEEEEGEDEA
T2 sequence (P11388 whole entry): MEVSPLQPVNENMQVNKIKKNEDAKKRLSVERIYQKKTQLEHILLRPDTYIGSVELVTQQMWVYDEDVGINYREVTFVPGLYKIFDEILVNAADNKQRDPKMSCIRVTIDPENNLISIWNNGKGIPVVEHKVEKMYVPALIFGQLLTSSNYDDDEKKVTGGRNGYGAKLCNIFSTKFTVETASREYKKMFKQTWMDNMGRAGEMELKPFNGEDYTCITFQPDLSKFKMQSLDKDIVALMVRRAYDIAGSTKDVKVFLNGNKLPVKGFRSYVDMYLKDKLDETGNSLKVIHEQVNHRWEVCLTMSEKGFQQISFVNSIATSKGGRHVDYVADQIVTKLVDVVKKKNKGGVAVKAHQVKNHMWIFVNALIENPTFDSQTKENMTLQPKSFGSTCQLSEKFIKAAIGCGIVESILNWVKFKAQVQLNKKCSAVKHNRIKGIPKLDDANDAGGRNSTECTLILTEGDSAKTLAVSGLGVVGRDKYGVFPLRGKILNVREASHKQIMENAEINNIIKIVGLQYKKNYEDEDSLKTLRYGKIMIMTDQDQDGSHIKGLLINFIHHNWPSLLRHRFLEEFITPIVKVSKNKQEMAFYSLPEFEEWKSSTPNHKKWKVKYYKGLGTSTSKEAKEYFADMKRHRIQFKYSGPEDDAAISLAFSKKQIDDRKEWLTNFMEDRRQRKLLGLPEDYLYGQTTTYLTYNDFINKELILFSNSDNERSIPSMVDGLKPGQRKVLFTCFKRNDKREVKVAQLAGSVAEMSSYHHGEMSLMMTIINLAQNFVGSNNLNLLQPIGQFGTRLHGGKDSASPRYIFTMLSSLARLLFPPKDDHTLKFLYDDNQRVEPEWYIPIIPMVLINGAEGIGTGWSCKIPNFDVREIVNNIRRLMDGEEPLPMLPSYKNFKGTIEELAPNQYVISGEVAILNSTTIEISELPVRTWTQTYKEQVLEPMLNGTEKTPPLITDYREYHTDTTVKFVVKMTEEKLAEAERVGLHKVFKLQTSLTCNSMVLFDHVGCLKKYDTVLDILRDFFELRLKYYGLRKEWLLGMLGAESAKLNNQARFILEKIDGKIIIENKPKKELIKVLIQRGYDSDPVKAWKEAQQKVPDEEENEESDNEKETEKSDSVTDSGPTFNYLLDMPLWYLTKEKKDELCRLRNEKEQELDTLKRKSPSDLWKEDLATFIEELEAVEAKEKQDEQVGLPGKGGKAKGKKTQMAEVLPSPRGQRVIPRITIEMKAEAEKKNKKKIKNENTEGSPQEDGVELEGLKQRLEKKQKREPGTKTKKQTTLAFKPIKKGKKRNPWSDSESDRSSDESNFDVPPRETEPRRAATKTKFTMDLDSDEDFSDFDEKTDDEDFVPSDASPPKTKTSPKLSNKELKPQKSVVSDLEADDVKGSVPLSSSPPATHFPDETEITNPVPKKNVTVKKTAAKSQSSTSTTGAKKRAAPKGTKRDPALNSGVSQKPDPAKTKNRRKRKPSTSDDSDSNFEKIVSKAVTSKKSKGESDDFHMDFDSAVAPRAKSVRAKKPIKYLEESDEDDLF
Topoisomerase II, sequence (P11388 whole entry): as above

On to `COc1ccc(N(C)c2nc(Cl)nc3ccccc23)cc1` [Example 1], for which the half-maximal inhibitory concentration (IC50) with P388/ADR cells is 2.7 nM; in the assay with P388 cells, 1.1 nM; in the assay with MCF-7 cells it was 2.9 nM; with NCI-ADR/Res cells it was 1.3 nM; against tubulin, < 500 nM. The GI50 in the assay with T-47D cells [1] was determined as 8 nM; with SW620 cells, 3 nM; in the assay on DLD cells, 8 nM; in the assay with MX-1 cells it was 5 nM; in the assay on H1299 cells, 6 nM. The “Effect on topoisomerase I-dependent relaxation of supercoiled DNA” value at topoisomerase I was “no apparent effect on topoisomerase I activity”. At Topoisomerase II, the “Inhibition of topoisomerase II-dependent relaxation of supercoiled DNA” value was “inhibition of DNA relaxation is substantial”. Moreover, the EC50 in the assay with T-47D cells [2] (24 h, read-out: T-47D (24 hr) EC50 (nM)) stood at 2 nM; with T-47D cells [2] (read-out: Caspase activation (EC50 nM)), 2 nM.
`COc1cc2nc(C)nc(Nc3cccc(Br)c3)c2cc1OC` [R1=Me, R2=3′-Br, R3═H]: the 50% inhibitory concentration (IC50) in [3] is > 10 µM.
For the molecule `COc1cc2nc(N)nc(Nc3cccc(Br)c3)c2cc1OC` [R1═NH2, R2=3′-Br, R3═H], the IC50 in [3] was > 10 µM.
Turning to `COc1cc([C@@H]2c3cc4c(cc3[C@@H](O[C@@H]3O[C@@H]5CO[C@@H](C)O[C@H]5[C@H](O)[C@H]3O)[C@H]3COC(=O)[C@H]23)OCO4)cc(OC)c1O` [VP-16, etoposide, reference compound], on topoisomerase I, the “Effect on topoisomerase I-dependent relaxation of supercoiled DNA” value is reported as “no apparent effect on topoisomerase I activity”.
Consider “Radiolabeled (4-Azido-phenyl)-(2-methyl-quinazolin-4-yl)-methyl-amine [Radiolabeled Example 102 compound]”, for which, in assay [4], the “Binding to Topoisomerase II (crosslink on UV irradiation)” value is “binds sufficiently well to Topoisomerase II to crosslink to the enzyme when photoactivated”.
